Source: PubChem BioAssay (NCI)
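Dose response: 5 concentrations. Exposure: 48 h. Format: 96-well plates. Endpoint: linear interpolation; highest concentration if not reached. GI50 marks 50% less growth. TGI marks complete inhibition of growth.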

Assays:
Experiment in all cases: NCI tumour cell line growth inhibition, 48 h
PC-3 prostate = system: PC-3 prostate
MCF7 breast = system: MCF7 breast
NCI-H460 lung = system: NCI-H460 lung
HS 578T breast = system: HS 578T breast
RXF 393 renal = system: RXF 393 renal
CAKI-1 renal = system: CAKI-1 renal
MDA-MB-435 = system: MDA-MB-435
UACC-62 melanoma = system: UACC-62 melanoma
K-562 leukemia = system: K-562 leukemia
OVCAR-3 ovarian = system: OVCAR-3 ovarian
U251 CNS = system: U251 CNS
SK-MEL-2 melanoma = system: SK-MEL-2 melanoma
UO-31 renal = system: UO-31 renal
MALME-3M melanoma = system: MALME-3M melanoma
SW-620 colon = system: SW-620 colon
SK-MEL-28 melanoma = system: SK-MEL-28 melanoma
HOP-92 NSCLC = system: HOP-92 NSCLC
786-0 renal = system: 786-0 renal
SNB-19 CNS = system: SNB-19 CNS
RPMI-8226 leukemia = system: RPMI-8226 leukemia
LOX IMVI melanoma = system: LOX IMVI melanoma
NCI/ADR-RES ovarian = system: NCI/ADR-RES ovarian
MOLT-4 leukemia = system: MOLT-4 leukemia
HT29 colon = system: HT29 colon
KM12 colon = system: KM12 colon
HOP-62 NSCLC = system: HOP-62 NSCLC
HL-60(TB) leukemia = system: HL-60(TB) leukemia
IGROV1 ovarian = system: IGROV1 ovarian
SNB-75 CNS = system: SNB-75 CNS
T-47D breast = system: T-47D breast
SF-268 CNS = system: SF-268 CNS
SF-295 CNS = system: SF-295 CNS
TK-10 renal = system: TK-10 renal
MDA-MB-231 breast = system: MDA-MB-231 breast
EKVX NSCLC = system: EKVX NSCLC
CCRF-CEM leukemia = system: CCRF-CEM leukemia
A549 NSCLC = system: A549 NSCLC
DU-145 prostate = system: DU-145 prostate
BT-549 breast = system: BT-549 breast
OVCAR-8 ovarian = system: OVCAR-8 ovarian
COLO 205 colon = system: COLO 205 colon
UACC-257 melanoma = system: UACC-257 melanoma
HCT-116 colon = system: HCT-116 colon
HCC-2998 colon = system: HCC-2998 colon
NCI-H23 lung = system: NCI-H23 lung
SF-539 CNS = system: SF-539 CNS
M14 melanoma = system: M14 melanoma
SK-MEL-5 melanoma = system: SK-MEL-5 melanoma
SN12C renal = system: SN12C renal
SK-OV-3 ovarian = system: SK-OV-3 ovarian
ACHN renal = system: ACHN renal
NCI-H226 lung = system: NCI-H226 lung
NCI-H522 lung = system: NCI-H522 lung
OVCAR-4 ovarian = system: OVCAR-4 ovarian
A498 renal = system: A498 renal
OVCAR-5 ovarian = system: OVCAR-5 ovarian
HCT-15 colon = system: HCT-15 colon
SR leukemia = system: SR leukemia

## CN1CCN(Cc2ccc(NC(=O)c3cncc(C#Cc4cnc5ccc(OCC6COC6)nn45)c3)cc2C(F)(F)F)CC1
PC-3 prostate
  GI50: 244 nM
  TGI: 1.45 µM
MCF7 breast
  GI50: 96 nM
  TGI: 0.528 µM
NCI-H460 lung
  GI50: 189 nM
  TGI: 0.676 µM
HS 578T breast
  GI50: 235 nM
  TGI: 1.32 µM
RXF 393 renal
  GI50: 159 nM
  TGI: 457 nM
CAKI-1 renal
  GI50: 117 nM
  TGI: 0.432 µM
MDA-MB-435
  GI50: 144 nM
  TGI: 0.615 µM
UACC-62 melanoma
  GI50: 155 nM
  TGI: 717 nM
K-562 leukemia
  GI50: 5 nM
  TGI: 5.12 µM
OVCAR-3 ovarian
  GI50: 214 nM
  TGI: 0.705 µM
U251 CNS
  GI50: 251 nM
  TGI: 0.935 µM
SK-MEL-2 melanoma
  GI50: 103 nM
  TGI: 0.237 µM
UO-31 renal
  GI50: 167 nM
  TGI: 558 nM
MALME-3M melanoma
  GI50: 89.5 nM
  TGI: 0.314 µM
SW-620 colon
  GI50: 160 nM
  TGI: 0.599 µM
SK-MEL-28 melanoma
  GI50: 218 nM
  TGI: 0.809 µM
HOP-92 NSCLC
  GI50: 28 nM
  TGI: 0.166 µM
786-0 renal
  GI50: 272 nM
  TGI: 0.847 µM
SNB-19 CNS
  GI50: 363 nM
  TGI: 2.05 µM
RPMI-8226 leukemia
  GI50: 269 nM
  TGI: 1.26 µM
LOX IMVI melanoma
  GI50: 165 nM
  TGI: 620 nM
NCI/ADR-RES ovarian
  GI50: 195 nM
  TGI: 1260 nM
MOLT-4 leukemia
  GI50: 129 nM
  TGI: 941 nM
HT29 colon
  GI50: 166 nM
  TGI: 0.687 µM
KM12 colon
  GI50: 5 nM
  TGI: 0.451 µM
HOP-62 NSCLC
  GI50: 175 nM
  TGI: 0.589 µM
HL-60(TB) leukemia
  GI50: 121 nM
  TGI: 0.412 µM
IGROV1 ovarian
  GI50: 142 nM
  TGI: 583 nM
SNB-75 CNS
  GI50: 182 nM
  TGI: 0.541 µM
T-47D breast
  GI50: 355 nM
  TGI: 1.43 µM
SF-268 CNS
  GI50: 189 nM
  TGI: 0.629 µM
SF-295 CNS
  GI50: 443 nM
  TGI: 1120 nM
TK-10 renal
  GI50: 187 nM
  TGI: 0.57 µM
MDA-MB-231 breast
  GI50: 95 nM
  TGI: 0.445 µM
EKVX NSCLC
  GI50: 273 nM
  TGI: 0.954 µM
CCRF-CEM leukemia
  GI50: 184 nM
  TGI: 3.88 µM
A549 NSCLC
  GI50: 174 nM
  TGI: 0.655 µM
DU-145 prostate
  GI50: 177 nM
  TGI: 0.573 µM
BT-549 breast
  GI50: 538 nM
  TGI: 1.18 µM
OVCAR-8 ovarian
  GI50: 163 nM
  TGI: 600 nM
COLO 205 colon
  GI50: 103 nM
  TGI: 0.222 µM
UACC-257 melanoma
  GI50: 384 nM
  TGI: 1.07 µM
HCT-116 colon
  GI50: 91.1 nM
  TGI: 0.306 µM
HCC-2998 colon
  GI50: 310 nM
  TGI: 1.11 µM
NCI-H23 lung
  GI50: 151 nM
  TGI: 0.693 µM
SF-539 CNS
  GI50: 165 nM
  TGI: 0.795 µM
M14 melanoma
  GI50: 88.9 nM
  TGI: 205 nM
SK-MEL-5 melanoma
  GI50: 552 nM
  TGI: 1170 nM
SN12C renal
  GI50: 141 nM
  TGI: 0.609 µM
SK-OV-3 ovarian
  GI50: 244 nM
  TGI: 0.927 µM
ACHN renal
  GI50: 167 nM
  TGI: 0.605 µM
NCI-H226 lung
  GI50: 50.4 nM
  TGI: 0.709 µM
NCI-H522 lung
  GI50: 97.7 nM
  TGI: 0.226 µM
OVCAR-4 ovarian
  GI50: 193 nM
  TGI: 979 nM
A498 renal
  GI50: 483 nM
  TGI: 1110 nM
OVCAR-5 ovarian
  GI50: 222 nM
  TGI: 0.812 µM
HCT-15 colon
  GI50: 153 nM
  TGI: 0.568 µM
SR leukemia
  GI50: 147 nM
  TGI: 517 nM

## C#CCN(C)CCCOc1ccc(NCc2ccc(C(=O)NO)cc2)cc1Cl
PC-3 prostate
  GI50: 1940 nM
  TGI: 22.8 µM
MCF7 breast
  GI50: 2830 nM
  TGI: 21 µM
NCI-H460 lung
  GI50: 2080 nM
  TGI: 14.6 µM
HS 578T breast
  GI50: 1850 nM
  TGI: 8.63 µM
RXF 393 renal
  GI50: 1220 nM
  TGI: 3200 nM
CAKI-1 renal
  GI50: 2330 nM
  TGI: 11.7 µM
MDA-MB-435
  GI50: 2590 nM
  TGI: 12.4 µM
UACC-62 melanoma
  GI50: 1610 nM
  TGI: 5270 nM
K-562 leukemia
  GI50: 2160 nM
  TGI: > 100 µM
OVCAR-3 ovarian
  GI50: 2060 nM
  TGI: 18.2 µM
U251 CNS
  GI50: 2160 nM
  TGI: 10 µM
SK-MEL-2 melanoma
  GI50: 2770 nM
  TGI: 8.66 µM
UO-31 renal
  GI50: 500 nM
  TGI: 2780 nM
MALME-3M melanoma
  GI50: 1110 nM
  TGI: 6.9 µM
SW-620 colon
  GI50: 2180 nM
  TGI: 10.6 µM
SK-MEL-28 melanoma
  GI50: 2570 nM
  TGI: 11.5 µM
HOP-92 NSCLC
  GI50: 1370 nM
  TGI: 5.92 µM
786-0 renal
  GI50: 3180 nM
  TGI: 14.3 µM
SNB-19 CNS
  GI50: 3080 nM
  TGI: 16.8 µM
RPMI-8226 leukemia
  GI50: 1560 nM
  TGI: 12.3 µM
LOX IMVI melanoma
  GI50: 1760 nM
  TGI: 3460 nM
NCI/ADR-RES ovarian
  GI50: 738 nM
  TGI: > 100000 nM
MOLT-4 leukemia
  GI50: 1460 nM
  TGI: > 100000 nM
HT29 colon
  GI50: 2960 nM
  TGI: 20.5 µM
KM12 colon
  GI50: 2670 nM
  TGI: 12.6 µM
HOP-62 NSCLC
  GI50: 2800 nM
  TGI: 16.3 µM
HL-60(TB) leukemia
  GI50: 1370 nM
  TGI: 44.4 µM
IGROV1 ovarian
  GI50: 1410 nM
  TGI: 4470 nM
SNB-75 CNS
  GI50: 2280 nM
  TGI: 16.6 µM
T-47D breast
  GI50: 1850 nM
  TGI: 18.7 µM
SF-268 CNS
  GI50: 2720 nM
  TGI: 22.9 µM
SF-295 CNS
  GI50: 1840 nM
  TGI: 3800 nM
TK-10 renal
  GI50: 1910 nM
  TGI: 10.1 µM
MDA-MB-231 breast
  GI50: 2100 nM
  TGI: 13.6 µM
EKVX NSCLC
  GI50: 3600 nM
  TGI: 22.5 µM
CCRF-CEM leukemia
  GI50: 632 nM
  TGI: > 100 µM
A549 NSCLC
  GI50: 2710 nM
  TGI: 15.3 µM
DU-145 prostate
  GI50: 2190 nM
  TGI: 14.8 µM
BT-549 breast
  GI50: 2760 nM
  TGI: 37.3 µM
OVCAR-8 ovarian
  GI50: 1400 nM
  TGI: > 100000 nM
COLO 205 colon
  GI50: 2380 nM
  TGI: 6.92 µM
UACC-257 melanoma
  GI50: 1420 nM
  TGI: 31.1 µM
HCT-116 colon
  GI50: 1430 nM
  TGI: 10.9 µM
HCC-2998 colon
  GI50: 2660 nM
  TGI: 12.3 µM
NCI-H23 lung
  GI50: 2180 nM
  TGI: 5.83 µM
SF-539 CNS
  GI50: 2050 nM
  TGI: 10.3 µM
SK-MEL-5 melanoma
  GI50: 1510 nM
  TGI: 3410 nM
SN12C renal
  GI50: 2690 nM
  TGI: 17.4 µM
SK-OV-3 ovarian
  GI50: 2010 nM
  TGI: 10.8 µM
ACHN renal
  GI50: 2620 nM
  TGI: 10.5 µM
NCI-H226 lung
  GI50: 2450 nM
  TGI: 16.9 µM
NCI-H522 lung
  GI50: 1070 nM
  TGI: 6.51 µM
OVCAR-4 ovarian
  GI50: 3400 nM
  TGI: > 100000 nM
A498 renal
  GI50: 1110 nM
  TGI: 2750 nM
OVCAR-5 ovarian
  GI50: 2380 nM
  TGI: 18.4 µM
HCT-15 colon
  GI50: 674 nM
  TGI: 19.4 µM
SR leukemia
  GI50: 724 nM
  TGI: > 100000 nM
